The values that follow come from patent US7935670B2, “Hepatitis C virus inhibitors” (Bristol-Myers Squibb Company, priority 2006, dated 2011).

Read-outs that look alike come from different tables or passages of the source. A value given as a limit tells only on which side of the number the result lay.

The subject of test [1] is HCV replicon in HUH-7 cells. Briefly: HCV replicon FRET assay. The format is cell-based, HCV strain 1b. The conditions noted are these: Hepatitis C virus. From the text:
An HCV replicon whole cell system was established as described by Lohmann V, Korner F, Koch J, Herian U, Theilmann L, Bartenschlager R., Science 285(5424): 110-3 (1999). This system enabled us to evaluate the effects of our HCV Protease compounds on HCV RNA replication. Briefly, using the HCV strain 1b sequence described in the Lohmann paper (Assession number: AJ238799), an HCV cDNA was synthesized by Operon Technologies, Inc. (Alameda, Calif.), and the full-length replicon was then assembled in plasmid pGem9zf(+) (Promega, Madison, Wis.) using standard molecular biology techniques. The replicon consists of (i) the HCV 5′ UTR fused to the first 12 amino acids of the capsid protein, (ii) the neomycin phosphotransferase gene (neo), (iii) the IRES from encephalomyocarditis virus (EMCV), and (iv) HCV NS3 to NS5B genes and the HCV 3′ UTR. Plasmid DNAs were linearized with ScaI and RNA transcripts were synthesized in vitro using the T7 MegaScript transcription kit (Ambion, Austin, Tex.) according to manufacturer's directions. In vitro transcripts of the cDNA were transfected into the human hepatoma cell line, HUH-7. […] Resulting cell lines were characterized for positive and negative strand RNA production and protein production over time.
The HCV replicon FRET assay was developed to monitor the inhibitory effects of compounds described in the disclosure on HCV viral replication. HUH-7 cells, constitutively expressing the HCV replicon, were grown in Dulbecco's Modified Eagle Media (DMEM) (Gibco-BRL) containing 10% Fetal calf serum (FCS) (Sigma) and 1 mg/ml G418 (Gibco-BRL). Cells were seeded the night before (1.5×10^4 cells/well) in 96-well tissue-culture sterile plates. Compound and no compound controls were prepared in DMEM containing 4% FCS, 1:100 Penicillin/Streptomysin (Gibco-BRL), 1:100 L-glutamine and 5% DMSO in the dilution plate (0.5% DMSO final concentration in the assay). Compound/DMSO mixes were added to the cells and incubated for 4 days at 37° C. After 4 days, cells were first assessed for cytotoxicity using alamar Blue (Trek Diagnotstic Systems) for a CC50 reading. The toxicity of compound (CC50) was determined by adding 1/10th volume of alamar Blue to the media incubating the cells. After 4 h, the fluorescence signal from each well was read, with an excitation wavelength at 530 nm and an emission wavelength of 580 nm, using the Cytofluor Series 4000 (Perspective Biosystems). Plates were then rinsed thoroughly with Phosphate-Buffered Saline (PBS) (3 times 150 μl). The cells were lysed with 25 μl of a lysis assay reagent containing an HCV protease substrate (5× cell Luciferase cell culture lysis reagent (Promega #E153A) diluted to 1× with distilled water, NaCl added to 150 mM final, the FRET peptide substrate (as described for the enzyme assay above) diluted to 10 μM final from a 2 mM stock in 100% DMSO. The plate was then placed into the Cytofluor 4000 instrument which had been set to 340 nm excitation/490 nm emission, automatic mode for 21 cycles and the plate read in a kinetic mode. EC50 determinations were carried out as described for the IC50 determinations.
In general terms: A replicon is a self-replicating genome or part of one, used to study replication in cells.

The test system of test [2] is human pancreatic chymotrypsin. In words: Specificity assay, chymotrypsin. The settings on record: 2 h enzyme-inhibitor pre-incubation. It counts as biochemical. How it is done: (§1) The specificities of compounds of the present disclosure were determined against a variety of serine proteases: human neutrophil elastase (HNE), porcine pancreatic elastase (PPE) and human pancreatic chymotrypsin and one cysteine protease: human liver cathepsin B. In all cases a 96-well plate format protocol using colorimetric p-nitroaniline (pNA) substrate specific for each enzyme was used as described previously (PCT Patent Application No. WO 00/09543) with some modifications to the serine protease assays. All enzymes were purchased from Sigma while the substrates were from Bachem.
(§2) Each assay included a 2 h enzyme-inhibitor pre-incubation at room temperature followed by addition of substrate and hydrolysis to ˜30% conversion as measured on a Spectramax Pro microplate reader. Compound concentrations varied from 100 to 0.4 μM depending on their potency.
(§3) 50 mM Tris(hydroxymethyl)aminomethane hydrochloride (Tris-HCl) pH 8, 0.5 M Sodium Sulfate (Na2SO4), 50 mM NaCl, 0.1 mM EDTA, 3% DMSO, 0.01% Tween-20 with:
(§4) 133 μM succ-AAA-pNA and 20 nM HNE or 8 nM PPE; 100 μM succ-AAPF-pNA and […] Chymotrypsin.
(§5) The percentage of inhibition was calculated using the formula: [1−((UVinh−UVblank)/(UVctl−UVblank))]×100
(§6) A non-linear curve fit was applied to the inhibition-concentration data, and the 50% effective concentration (IC50) was calculated by the use of Excel Xl-fit software.

The target in test [3] is T1, porcine pancreatic elastase (PPE) (Sus scrofa, UniProt P00772).
T1 construct: purchased Sigma
T1 sequence (P00772 27-266): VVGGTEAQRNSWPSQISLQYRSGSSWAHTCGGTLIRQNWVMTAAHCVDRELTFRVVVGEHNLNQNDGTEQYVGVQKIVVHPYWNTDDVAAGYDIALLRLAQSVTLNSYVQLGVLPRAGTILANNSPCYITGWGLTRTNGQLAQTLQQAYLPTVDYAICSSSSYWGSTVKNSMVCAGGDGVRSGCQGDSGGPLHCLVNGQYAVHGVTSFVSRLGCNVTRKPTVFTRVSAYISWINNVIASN
Briefly: Specificity assay, porcine pancreatic elastase. The format is biochemical. The conditions noted are these: 2 h enzyme-inhibitor pre-incubation. How it is done: as §1, §2, §3, §4, §5, §6

For the next test, the target named is T2, human liver cathepsin B (Homo sapiens, UniProt P07858).
T2 construct: purchased Sigma; host or cells: human liver (by name)
In words: Specificity assay, cathepsin B. It counts as biochemical. The settings on record: 2 h enzyme-inhibitor pre-incubation. The procedure: as §1, §2
100 mM NaHPO4 (Sodium Hydrogen Phosphate) pH 6, 0.1 mM EDTA, 3% DMSO, 1 mM TCEP (Tris(2-carboxyethyl)phosphine hydrochloride), 0.01% Tween-20, 30 μM Z-FR-pNA and 5 nM Cathepsin B (enzyme stock activated in buffer containing 20 mM TCEP before use).
as §5, §6

Test [4] has as its system HCV replicon (Renilla luciferase reporter) in HUH-7 cells. In words: HCV replicon luciferase reporter assay. It counts as cell-based, HCV strain 1b. The settings on record: Huh-7, 96 h, 4 days.

A word on the EC50: it is the concentration needed to bring the measured effect to its halfway point. The IC50 is the point on the concentration scale where inhibition reaches its midpoint. High values mean lower potency, low ones higher potency. Take `C=C[C@@H]1C[C@]1(NC(=O)[C@@H]1C[C@@H](OC(=O)c2ccccc2)CN1C(=O)[C@@H](NC(=O)OC(C)(C)C)C(C)(C)C)C(=O)NS(=O)(=O)C1CC1` [Compound 1]: the EC50 in test [1] (96 h, HUH-7 replicon cells, 4 days, read-out: EC50 in the replicon FRET assay) is 484 nM; in test [1] (Huh-7, read-out: Activity Range (EC50)) it was 200 to 1000 nM; in test [4], 51 nM. The values for the IC50 (in test [2]; in test [3]; at human liver cathepsin B) were more than 200000 nM, more than 200000 nM and more than 50000 nM, respectively.
